According to ChEMBL document CHEMBL5036327, “Systematic Optimization of Potent and Orally Bioavailable Purine Scaffold as a Dual Inhibitor of Toll-Like Receptors 7 and 9” (J Med Chem, 2021):
≈ marks a conversion by molar mass, not a printed value.

Assays:
Toll-like receptor 7 = biological target: T1, Toll-like receptor 7 (Homo sapiens, UniProt Q9NYK1); test: Antagonist activity at human TLR7 expressed in HEK-blue-HTLR7 cells assessed as inhibition of CL264-induced NFkappaB activation measured after overnight incubation by SEAP-based spectrophotometry assay
T1 sequence (Q9NYK1 whole entry): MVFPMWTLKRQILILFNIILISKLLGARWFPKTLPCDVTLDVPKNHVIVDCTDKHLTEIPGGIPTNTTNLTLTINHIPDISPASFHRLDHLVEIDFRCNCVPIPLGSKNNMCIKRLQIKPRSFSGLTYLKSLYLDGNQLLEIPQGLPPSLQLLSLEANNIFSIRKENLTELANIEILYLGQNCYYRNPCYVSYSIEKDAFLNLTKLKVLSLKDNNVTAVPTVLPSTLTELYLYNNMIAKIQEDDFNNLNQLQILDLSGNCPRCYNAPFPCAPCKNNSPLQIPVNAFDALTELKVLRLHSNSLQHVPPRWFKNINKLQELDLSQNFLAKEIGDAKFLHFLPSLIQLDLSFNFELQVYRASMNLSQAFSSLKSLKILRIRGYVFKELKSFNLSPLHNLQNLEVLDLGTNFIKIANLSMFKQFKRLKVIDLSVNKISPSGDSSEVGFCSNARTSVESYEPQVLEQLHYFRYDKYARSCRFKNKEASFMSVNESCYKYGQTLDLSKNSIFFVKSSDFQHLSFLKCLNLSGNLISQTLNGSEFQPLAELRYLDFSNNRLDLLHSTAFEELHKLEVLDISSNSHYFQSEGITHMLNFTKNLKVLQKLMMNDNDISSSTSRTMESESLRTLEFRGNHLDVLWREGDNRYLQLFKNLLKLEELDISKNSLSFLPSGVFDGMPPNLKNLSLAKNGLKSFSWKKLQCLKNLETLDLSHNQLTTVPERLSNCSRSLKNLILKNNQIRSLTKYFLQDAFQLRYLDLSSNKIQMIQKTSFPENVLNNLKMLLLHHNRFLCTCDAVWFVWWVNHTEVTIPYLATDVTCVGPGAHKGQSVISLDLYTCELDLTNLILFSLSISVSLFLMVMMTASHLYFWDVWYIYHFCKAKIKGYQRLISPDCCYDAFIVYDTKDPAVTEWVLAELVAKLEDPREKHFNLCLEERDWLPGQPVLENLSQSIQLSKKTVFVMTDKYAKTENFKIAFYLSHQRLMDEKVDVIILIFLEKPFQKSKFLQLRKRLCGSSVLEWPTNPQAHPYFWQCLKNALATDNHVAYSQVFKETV

[1] = Apparent permeability across basolateral to apical side in human Caco2 cells at 10 uM measured after 10 mins by LC-MS/MS analysis; conditions: Caco-2
[2] = Metabolic stability in human liver microsomes assessed as intrinsic clearance incubated for 60 mins by LC-MS/MS analysis
[3] = Apparent permeability across apical to basolateral side in human Caco2 cells at 10 uM measured after 10 mins by LC-MS/MS analysis; conditions: Caco-2
[4] = Efflux ratio of apparent permeability across apical to basolateral over basolateral to apical side in human Caco2 cells measured after 10 mins by LC-MS/MS analysis; conditions: Caco-2
[5] = Stability in mouse plasma measured after 2 hrs by LC-MS/MS analysis
Toll-like receptor 9 = biological target: T2, Toll-like receptor 9 (Homo sapiens, UniProt Q9NR96); test: Antagonist activity at human TLR9 expressed in […] cells assessed as inhibition of CpGB-induced NFkappaB activation measured after overnight incubation by SEAP-based spectrophotometry assay; format: cell-based, HEK293
T2 sequence (Q9NR96 whole entry): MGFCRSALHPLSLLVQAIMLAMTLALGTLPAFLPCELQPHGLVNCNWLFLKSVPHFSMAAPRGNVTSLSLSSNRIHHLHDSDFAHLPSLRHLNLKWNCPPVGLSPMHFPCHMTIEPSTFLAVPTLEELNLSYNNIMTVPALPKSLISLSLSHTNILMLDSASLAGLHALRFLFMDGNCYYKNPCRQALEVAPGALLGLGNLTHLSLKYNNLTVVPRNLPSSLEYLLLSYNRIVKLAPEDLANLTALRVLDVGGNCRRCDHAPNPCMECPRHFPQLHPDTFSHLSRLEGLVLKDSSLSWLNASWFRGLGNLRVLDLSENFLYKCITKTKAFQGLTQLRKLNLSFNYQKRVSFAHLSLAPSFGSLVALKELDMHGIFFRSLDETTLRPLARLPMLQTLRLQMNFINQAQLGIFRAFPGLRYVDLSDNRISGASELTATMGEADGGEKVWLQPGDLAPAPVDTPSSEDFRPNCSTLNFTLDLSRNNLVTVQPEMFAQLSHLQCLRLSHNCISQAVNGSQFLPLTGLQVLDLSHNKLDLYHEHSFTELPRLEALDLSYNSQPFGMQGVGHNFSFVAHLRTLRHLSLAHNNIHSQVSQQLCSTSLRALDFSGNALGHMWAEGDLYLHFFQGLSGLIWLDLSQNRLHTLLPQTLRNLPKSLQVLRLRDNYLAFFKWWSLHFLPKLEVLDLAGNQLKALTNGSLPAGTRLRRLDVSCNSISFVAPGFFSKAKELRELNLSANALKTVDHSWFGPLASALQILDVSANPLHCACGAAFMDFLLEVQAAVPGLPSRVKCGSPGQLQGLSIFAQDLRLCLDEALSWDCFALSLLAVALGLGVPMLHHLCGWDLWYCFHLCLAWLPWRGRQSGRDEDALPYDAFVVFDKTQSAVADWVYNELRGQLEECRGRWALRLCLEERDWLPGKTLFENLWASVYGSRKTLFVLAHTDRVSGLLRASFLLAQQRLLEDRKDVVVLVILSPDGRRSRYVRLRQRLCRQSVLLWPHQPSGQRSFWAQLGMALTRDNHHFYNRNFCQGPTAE

[6] = Metabolic stability in human liver microsomes assessed as compound remaining incubated for 60 mins by LC-MS/MS analysis
Toll-like receptor 8 = biological target: T3, Toll-like receptor 8 (Homo sapiens, UniProt Q9NR97); test: Antagonist activity at human TLR8 expressed in […] cells assessed as inhibition of CL075-induced NFkappaB activation measured after overnight incubation by SEAP-based spectrophotometry assay; format: cell-based, HEK293
T3 sequence (Q9NR97 whole entry): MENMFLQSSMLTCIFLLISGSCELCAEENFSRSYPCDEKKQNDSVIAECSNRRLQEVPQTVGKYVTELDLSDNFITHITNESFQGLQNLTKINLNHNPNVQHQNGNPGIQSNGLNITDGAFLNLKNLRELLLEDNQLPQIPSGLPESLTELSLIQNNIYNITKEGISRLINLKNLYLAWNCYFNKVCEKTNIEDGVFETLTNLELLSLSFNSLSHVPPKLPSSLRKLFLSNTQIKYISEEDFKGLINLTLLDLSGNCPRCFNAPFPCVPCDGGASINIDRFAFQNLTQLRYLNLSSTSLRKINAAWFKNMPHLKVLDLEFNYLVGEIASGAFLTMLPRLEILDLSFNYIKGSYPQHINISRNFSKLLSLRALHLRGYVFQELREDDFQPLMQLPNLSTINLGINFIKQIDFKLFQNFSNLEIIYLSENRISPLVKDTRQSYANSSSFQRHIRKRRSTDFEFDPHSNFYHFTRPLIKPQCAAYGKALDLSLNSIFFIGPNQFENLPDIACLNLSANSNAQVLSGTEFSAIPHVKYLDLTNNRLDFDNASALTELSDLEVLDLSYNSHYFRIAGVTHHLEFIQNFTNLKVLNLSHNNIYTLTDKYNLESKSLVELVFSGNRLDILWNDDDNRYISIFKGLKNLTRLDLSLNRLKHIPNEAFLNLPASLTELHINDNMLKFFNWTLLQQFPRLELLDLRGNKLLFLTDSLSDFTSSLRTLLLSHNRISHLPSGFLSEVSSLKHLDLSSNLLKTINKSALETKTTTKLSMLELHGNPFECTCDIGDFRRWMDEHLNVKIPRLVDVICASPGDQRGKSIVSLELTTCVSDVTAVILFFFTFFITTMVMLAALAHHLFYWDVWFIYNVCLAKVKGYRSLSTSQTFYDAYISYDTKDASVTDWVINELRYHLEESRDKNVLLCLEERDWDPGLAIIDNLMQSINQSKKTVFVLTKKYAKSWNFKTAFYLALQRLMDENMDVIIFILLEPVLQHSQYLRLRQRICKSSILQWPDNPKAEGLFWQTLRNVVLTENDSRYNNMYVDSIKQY

physchem = conditions: buffer, pH 7.4
Description: Aqueous solubility of compound at pH 7.4 measured after 18 hrs by UV-spectrometry

[7] = Stability in human plasma measured after 2 hrs by LC-MS/MS analysis
[8] = Metabolic stability in human liver microsomes assessed as half life incubated for 60 mins by LC-MS/MS analysis
[9] = metabolic stability in human liver microsomes assessed as hepatic extraction ratio incubated for 60 mins by LC-MS/MS analysis
[10] = Metabolic stability in mouse liver microsomes assessed as intrinsic clearance incubated for 60 mins by LC-MS/MS analysis
[11] = Metabolic stability in mouse liver microsomes assessed as hepatic extraction ratio incubated for 60 mins by LC-MS/MS analysis

Row | SMILES | IC50 (Toll-like receptor 7) [µM] | IC50 (Toll-like receptor 9) [µM] | also measured
1 | CCN1CCN(CCCn2cnc3c(N4CCN(CC)CC4)ncnc32)CC1 | 4.78 | 1.19 | Papp B→A at 10 min, 10 µM [1]: 9.28 ×10⁻⁶ cm/s; microsomal CLint at 1 h [2]: 7.81 µL/min/mg; Papp A→B at 10 min, 10 µM [3]: 3.57 ×10⁻⁶ cm/s; efflux ratio at 10 min [4]: 2.6; remaining at 2 h [5]: 99%; remaining at 1 h [6]: 75.8%
2 | CCN1CCN(CCCn2cnc3c(N4CCN(C(=O)c5ccccc5)CC4)nc(NCc4ccc(F)cc4)nc32)CC1 | > 30 | > 30 | –
3 | CCN1CCN(c2nc(N)nc3c2ncn3CCCN2CCCC2)CC1 | 4.94 | 0.19 | –
4 | CCN1CCN(CCCn2cnc3c(N4CCN(C5CCCC5)CC4)nc(N)nc32)CC1 | 13.2 | 0.28 | –
5 | CCN1CCN(CCCn2cnc3c(N4CCN(C(=O)c5ccccc5)CC4)nc(NCc4ccc(N(CC)CC)cc4)nc32)CC1 | 8.4 | 3.4 | –
6 | CCN1CCN(CCCn2cnc3c(N4CCN(CC)CC4)nc(N4CCCC4)nc32)CC1 | 8.49 | 0.5 | –
7 | CCN1CCN(CCCn2cnc3c(N4CCN(C5CCCC5)CC4)nc(NCc4ccc(N(CC)CC)cc4)nc32)CC1 | 8.13 | 0.15 | –
8 | CCN1CCN(CCCn2cnc3c(N4CCN(CC)CC4)nc(N)nc32)CC1 | 16.2 | 0.26 | –
9 | CCN1CCN(CCCn2cnc3c(N4CCN(C5CCCC5)CC4)nc(NCc4ccc(F)cc4)nc32)CC1 | > 30 | 0.25 | –
10 | CCN1CCN(CCCn2cnc3c(N4CCN(C(=O)c5ccccc5)CC4)nc(N4CCCC4)nc32)CC1 | > 30 | > 30 | –
11 | CCN1CCN(CCCn2cnc3c(N4CCN(C(=O)C5CCCC5)CC4)nc(NCc4ccc(F)cc4)nc32)CC1 | > 30 | > 30 | –
12 | CCN1CCN(CCCn2cnc3c(N4CCN(C(=O)c5ccccc5)CC4)nc(N)nc32)CC1 | > 30 | > 30 | –
13 | CCN1CCN(CCCn2cnc3c(N4CCN(C5CCCC5)CC4)nc(NC(=O)c4ccc(CN(C)C)cc4)nc32)CC1 | – | 0.06 | IC50 (Toll-like receptor 8): > 30 µM
14 | COc1ccc(CNc2nc(N3CCN(C4CCCC4)CC3)c3ncn(CCCN4CCCC4)c3n2)cc1 | 11.6 | – | –
15 | Nc1nc(N2CCN(C3CCCC3)CC2)c2ncn(CCCN3CCCC3)c2n1 | 4.88 | 0.12 | –
16 | CCN1CCN(c2nc(NCc3ccc(OC)cc3)nc3c2ncn3CCCN2CCCC2)CC1 | – | – | IC50 (Toll-like receptor 8): > 30 µM
17 | CCN1CCN(CCCn2cnc3c(N4CCN(C(=O)C5CCCC5)CC4)nc(N)nc32)CC1 | > 30 | > 30 | –

More lines, main results first:

Row | IC50 (Toll-like receptor 7) [µM] | IC50 (Toll-like receptor 9) [µM] | SMILES | also measured
18 | – | 0.04 | CCN1CCN(c2nc(NCc3ccc(F)cc3)nc3c2ncn3CCCN2CCCC2)CC1 | IC50 (Toll-like receptor 8): > 30 µM
19 | 7.59 | – | CCN1CCN(CCCn2cnc3c(N4CCN(CC)CC4)nc(NCc4ccccc4)nc32)CC1 | –
20 | 10.1 | – | CCN1CCN(CCCn2cnc3c(N4CCN(CC)CC4)nc(NCc4ccc(F)cc4)nc32)CC1 | –
21 | 5.22 | 0.2 | CCN1CCN(CCCn2cnc3c(N4CCN(CC)CC4)nc(NCc4ccc(OC)cc4)nc32)CC1 | –
22 | 7.74 | – | CCN1CCN(CCCn2cnc3c(N4CCN(CC)CC4)nc(NC(=O)c4ccccc4)nc32)CC1 | –
23 | 17.8 | 0.09 | CCN1CCN(c2nc(NCc3ccc(CN(C)C)cc3)nc3c2ncn3CCCN2CCCC2)CC1 | solubility at 18 h (physchem): 136 µg/mL (≈ 269 µM); remaining at 2 h [7]: 58%; Papp B→A at 10 min, 10 µM [1]: 61.2 ×10⁻⁶ cm/s; microsomal CLint at 1 h [2]: 7.1 µL/min/mg; half-life at 1 h [8]: 1.87 h; hepatic extraction ratio at 1 h [9]: 0.241; Papp A→B at 10 min, 10 µM [3]: 92.2 ×10⁻⁶ cm/s; efflux ratio at 10 min [4]: 0.7; remaining at 2 h [5]: 22%; microsomal CLint at 1 h [10]: 4.74 µL/min/mg; hepatic extraction ratio at 1 h [11]: 0.114; remaining at 1 h [6]: 50.7%
24 | > 30 | – | CCN1CCN(CCCn2cnc3c(N4CCN(C5CCCC5)CC4)nc(NCc4ccc(OC)cc4)nc32)CC1 | –
25 | > 30 | > 30 | CCN1CCN(CCCn2cnc3c(N4CCN(C(=O)c5ccccc5)CC4)nc(NCc4ccc(OC)cc4)nc32)CC1 | –
26 | > 30 | > 30 | CCN1CCN(CCCn2cnc3c(N4CCN(C(=O)C5CCCC5)CC4)nc(NCc4ccc(OC)cc4)nc32)CC1 | –
